# Data: patent US12415777B2, “Fluorene derivative, and production method and use for same” (Osaka Gas Chemicals Co., Ltd., priority 2020, dated 2025)
# Assays:
# [1] = 5% mass reduction temperature (TG-DTA); type: physicochemical; settings: nitrogen atmosphere, 50 to 400° C., heating rate 10° C./min
# Description: (5% Mass Reduction Temperature)
# The temperature, at which the mass of the sample is reduced by 5% by mass, was measured using a Thermogravimeter-Differential Thermal Analyzer (TG-DTA) (manufactured by PerkinElmer, Inc., “TGA-4000”) in a nitrogen atmosphere, under the condition of a measurement temperature range of 50 to 400° C. with a heating rate of 10° C./min.
# [2] = Solvent solubility test; type: physicochemical; design: key: A: Soluble; B: Soluble, but undissolved residue was visually confirmed; C: Insoluble; settings: 3% by mass, stood overnight at room temperature (15 to 25° C.), visually observed; for Solubility in Dioxane: 1,4-dioxane; for Solubility in IPA: isopropanol; for Solubility in MEK: methyl ethyl ketone; for Solubility in MIBK: methyl isobutyl ketone; for Solubility in THF: tetrahydrofuran
# Description: (Solvent Solubility Test)
# For each sample and solvent, a sample and a solvent shown in Table 1 below were mixed in a concentration of 3% by mass, and a mixture was shaken by hand for about 10 minutes, and then allowed to stand overnight at a room temperature (temperature of 15 to 25° C.). After that, the solubility of the sample was visually observed and evaluated according to the following criteria. • A: Soluble • B: Soluble, but undissolved residue was visually confirmed • C: Insoluble (Flexural Test)
# The results of the solubility test of the fluorene derivatives obtained in Examples 1 to 3 and Comparative Example 1 are shown in Table 1. In Table 1, IPA represents isopropanol, MEK represents methyl ethyl ketone, MIBK represents methyl isobutyl ketone, dioxane represents 1,4-dioxane, and THF represents tetrahydrofuran. As NIPAM-FL, the one prepared in Example 3A was used.
5% mass reduction temperature [1] [°C],Solubility in Dioxane [2],Solubility in Acetone [2],Solubility in Chloroform [2],Solubility in Ethanol [2],Solubility in Ethyl acetate [2],Solubility in Hexane [2],Solubility in Methanol [2],Solubility in Toluene [2],Solubility in Water [2],Solubility in IPA [2],Solubility in MEK [2],Solubility in MIBK [2],Solubility in THF [2],Structure (SMILES)
320,C,C,C,C,C,C,C,C,C,C,C,B,C,"NC(=O)CCC1(CCC(N)=O)c2ccccc2-c2ccccc21 [AAD-FL, 9,9-di-(β-carbamoyl-ethyl)fluorene, reference compound]"
294,A,A,A,A,A,C,A,A,C,A,A,A,A,"CCN(CC)C(=O)CCC1(CCC(=O)N(CC)CC)c2ccccc2-c2ccccc21 [DEAA-FL, 9,9-bis[2-(N,N-diethylcarbamoyl)ethyl]fluorene]"
318,C,C,A,A,C,C,A,C,C,C,C,A,A,"CN(C)C(=O)CCC1(CCC(=O)N(C)C)c2ccccc2-c2ccccc21 [DMAA-FL, 9,9-bis[2-(N,N-dimethylcarbamoyl)ethyl]fluorene]"
257,C,C,C,C,C,C,A,C,C,C,C,B,C,"CC(C)NC(=O)CCC1(CCC(=O)NC(C)C)c2ccccc2-c2ccccc21 [NIPAM-FL, 9,9-bis[2-(N-isopropylcarbamoyl)ethyl]fluorene]"
